Measured values: article PMC3222680 (PLoS ONE, 2011)

How the values were obtained:
αY27′A α-βWT GlyR = αY27′A α-βWT GlyR (Homo sapiens, UniProt P23415+P48167, Y307A)
Experimental: (§1) The human GlyR α1 and β subunit cDNAs were subcloned into the pcDNA3.1zeo+ (Invitrogen) or pGEMHE [44] plasmid vectors for expression in HEK293 cells or Xenopus oocytes, respectively. Site-directed mutagenesis and chimera construction were performed using the QuickChange (Stratagene, La Jolla, CA, USA) mutagenesis and multiple-template-based sequential PCR protocols, respectively.
(§2) The effects of the hyperekplexia-mimicking mutations, K24′A, V25′A and Y27′A, were examined on GlyRs expressed in HEK293 cells (ATCC). Details of the HEK293 cell culture, GlyR expression and electrophysiological recording of the HEK293 cells are described elsewhere. Briefly, HEK293 cells were maintained in DMEM supplemented with 10% fetal bovine serum. Cells were transfected using a calcium phosphate precipitation protocol. When co-transfecting the α1 together with the β or any other chimera subunits, their respective cDNAs were combined in a ratio of 1∶10. In addition, the pEGFP-N1 (Clontech) was co-transfected to facilitate identifying the transfected cells. […] Cells were treated with external Ringer's solution and internal CsCl solution [30]. Cells were voltage-clamped at −40 mV. When the heteromeric GlyRs were expressed, the picrotoxin sensitivity was tested to confirm that the majority of receptors are heteromers, [30].
(§3) Results are expressed as mean±standard error of the mean of three or more independent experiments. […] Statistical significance was determined using the Student's t-test.

αY27′A βWT GlyR = αY27′A βWT GlyR (Homo sapiens, UniProt P23415+P48167, Y307A)
Sequence of αY27′A βWT GlyR (P23415 29-449 isoform P23415-2 Y307A limits assumed): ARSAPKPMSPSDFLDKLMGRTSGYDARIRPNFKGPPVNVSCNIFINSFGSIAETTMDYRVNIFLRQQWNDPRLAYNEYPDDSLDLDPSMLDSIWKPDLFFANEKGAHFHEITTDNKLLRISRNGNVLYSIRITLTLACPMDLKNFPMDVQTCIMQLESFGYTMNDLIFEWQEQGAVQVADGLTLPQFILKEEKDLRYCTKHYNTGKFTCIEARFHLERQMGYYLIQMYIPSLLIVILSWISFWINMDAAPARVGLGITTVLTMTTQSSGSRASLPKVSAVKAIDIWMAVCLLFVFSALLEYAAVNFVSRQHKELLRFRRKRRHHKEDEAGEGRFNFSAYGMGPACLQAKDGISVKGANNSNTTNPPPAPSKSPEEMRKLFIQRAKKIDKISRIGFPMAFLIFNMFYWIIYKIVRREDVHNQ
Sequence of αY27′A βWT GlyR (P48167 23-497): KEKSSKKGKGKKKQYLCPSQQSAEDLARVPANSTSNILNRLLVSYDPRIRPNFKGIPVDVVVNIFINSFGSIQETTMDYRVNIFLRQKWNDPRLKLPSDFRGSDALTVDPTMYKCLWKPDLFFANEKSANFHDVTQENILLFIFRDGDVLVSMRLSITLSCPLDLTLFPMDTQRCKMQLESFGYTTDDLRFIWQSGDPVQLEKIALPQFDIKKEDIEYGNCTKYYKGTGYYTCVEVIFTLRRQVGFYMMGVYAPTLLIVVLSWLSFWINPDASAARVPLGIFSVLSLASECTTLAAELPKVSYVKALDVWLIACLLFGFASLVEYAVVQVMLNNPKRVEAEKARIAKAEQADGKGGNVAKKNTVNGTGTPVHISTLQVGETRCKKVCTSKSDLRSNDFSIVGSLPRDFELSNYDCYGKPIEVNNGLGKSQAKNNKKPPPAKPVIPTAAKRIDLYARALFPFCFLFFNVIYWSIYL
Experimental: as §1, §2, §3

αY27′A β-αWT GlyR = αY27′A β-αWT GlyR (Homo sapiens, UniProt P23415+P48167, Y307A)
Sequence of αY27′A β-αWT GlyR (P23415 29-449 isoform P23415-2 Y307A): as the sequence (P23415 29-449 isoform P23415-2 Y307A limits assumed) above
Sequence of αY27′A β-αWT GlyR (P48167+P23415 fused with the stated changes): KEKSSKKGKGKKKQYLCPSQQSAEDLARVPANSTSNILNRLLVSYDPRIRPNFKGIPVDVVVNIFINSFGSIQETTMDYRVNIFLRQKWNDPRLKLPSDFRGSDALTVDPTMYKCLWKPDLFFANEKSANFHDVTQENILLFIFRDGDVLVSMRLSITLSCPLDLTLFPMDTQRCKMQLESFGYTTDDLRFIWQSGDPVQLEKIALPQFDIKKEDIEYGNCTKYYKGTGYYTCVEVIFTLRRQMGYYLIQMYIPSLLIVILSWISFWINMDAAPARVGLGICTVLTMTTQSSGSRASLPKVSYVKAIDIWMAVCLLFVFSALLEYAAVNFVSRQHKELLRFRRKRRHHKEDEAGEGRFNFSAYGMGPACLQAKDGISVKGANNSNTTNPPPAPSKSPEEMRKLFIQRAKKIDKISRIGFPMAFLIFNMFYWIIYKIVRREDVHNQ
Experimental: as §1
For the β-α chimeras used for determining the effect of hyperekplexia-mimicking mutations on α1 β GlyR channel function, the Thr at the M2 6′ position was replaced by a Cys. […] Through such a modification, picrotoxin resistance was used to distinguish the heteromeric α1 β-α GlyR from the homomeric α1 GlyR when the α1 and β-α subunits were co-expressed.
The effects of the hyperekplexia-mimicking mutations, K24′A, V25′A and Y27′A, were examined on GlyRs expressed in HEK293 cells (ATCC). Details of the HEK293 cell culture, GlyR expression and electrophysiological recording of the HEK293 cells are described elsewhere. Briefly, HEK293 cells were maintained in DMEM supplemented with 10% fetal bovine serum. Cells were transfected using a calcium phosphate precipitation protocol. […]
as §3

αWT α-β19′C GlyR = αWT α-β19′C GlyR (Homo sapiens, UniProt P23415+P48167, C69A); settings: MTSR-labeled, oocytes
Sequence of αWT α-β19′C GlyR (P23415 29-449 isoform P23415-2 C69A): as the sequence (P23415 29-449 isoform P23415-2 Y307A limits assumed) above, with C41A, A279Y counted along it
Sequence of αWT α-β19′C GlyR (P23415+P48167 fused with the stated changes): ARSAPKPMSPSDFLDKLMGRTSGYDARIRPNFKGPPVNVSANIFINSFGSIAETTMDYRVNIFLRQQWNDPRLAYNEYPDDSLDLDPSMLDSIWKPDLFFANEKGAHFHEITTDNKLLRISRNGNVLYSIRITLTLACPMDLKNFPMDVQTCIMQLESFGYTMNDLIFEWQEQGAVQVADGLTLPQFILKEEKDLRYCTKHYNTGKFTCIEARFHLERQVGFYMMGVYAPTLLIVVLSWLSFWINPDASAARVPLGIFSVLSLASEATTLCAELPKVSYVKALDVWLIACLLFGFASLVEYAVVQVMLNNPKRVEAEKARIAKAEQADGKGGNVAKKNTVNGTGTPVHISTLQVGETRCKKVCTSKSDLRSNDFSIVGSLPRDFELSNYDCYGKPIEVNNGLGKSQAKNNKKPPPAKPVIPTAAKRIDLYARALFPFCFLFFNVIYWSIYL
Experimental: as §1
(§4) For the VCF experiments, both GlyR α1 and β subunit cDNAs in the pGEMHE vector were mutated to substitute non-essential background cysteines with alanines, including α1C41A and βC115AC291A [46], [47].
(§5) VCF experiments were performed on GlyRs expressed in Xenopus laevis oocytes. Female Xenopus laevis frogs were purchased from Xenopus Express, France. Details of oocyte preparation, GlyR expression and VCF recording are described elsewhere. Briefly, the mMessage mMachine kit (Ambion, Austin, TX) was used to generate capped mRNA. The mRNA was injected into oocytes of the female Xenopus laevis frog with 10 ng (1 ng α1 and 9 ng β or any other chimeric subunits) per oocyte. After injection, the oocytes were incubated in ND96 solution [33] for 3–4 days at 18 °C before recording.
(§6) The sulfhydryl-reactive reagent, sulforhodamine methanethiosulfonate (MTSR, Toronto Research Chemicals, North York, Ontario, Canada), was used to label 19′C residues. […] The oocytes were then transferred to the recording chamber and perfused with ND96 solution. The current was recorded by the two-electrode voltage clamp configuration and the recording electrode was filled with 3 M KCl. Cells were voltage-clamped at −40 mV. The fluorescence was recorded using the PhotoMax 200 photodiode detection system (Dagan Corp., Minneapolis, MN).
as §3

αWT αB-β19′C GlyR = αWT αB-β19′C GlyR (Homo sapiens, UniProt P23415+P48167, A80Q/C69A); settings: MTSR-labeled, oocytes
Sequence of αWT αB-β19′C GlyR (P23415 29-449 isoform P23415-2 C69A): as the sequence (P23415 29-449 isoform P23415-2 Y307A limits assumed) above, with C41A, A279Y counted along it
Sequence of αWT αB-β19′C GlyR (P23415+P48167 fused with the stated changes): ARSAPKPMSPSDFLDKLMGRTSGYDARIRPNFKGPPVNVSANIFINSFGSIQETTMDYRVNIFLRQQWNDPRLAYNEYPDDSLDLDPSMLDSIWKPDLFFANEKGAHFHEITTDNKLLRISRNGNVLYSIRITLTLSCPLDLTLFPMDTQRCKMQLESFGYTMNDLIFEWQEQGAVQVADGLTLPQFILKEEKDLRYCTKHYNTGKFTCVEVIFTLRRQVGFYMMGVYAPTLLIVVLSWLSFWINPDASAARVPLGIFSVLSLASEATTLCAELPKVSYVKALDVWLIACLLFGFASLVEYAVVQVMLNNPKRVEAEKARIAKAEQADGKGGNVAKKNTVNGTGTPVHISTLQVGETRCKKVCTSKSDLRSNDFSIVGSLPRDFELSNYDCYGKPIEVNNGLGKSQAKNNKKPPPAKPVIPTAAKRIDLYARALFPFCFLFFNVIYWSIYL
Experimental: as §1, §4, §5, §6, §3

αWT αT-β19′C GlyR = αWT αT-β19′C GlyR (Homo sapiens, UniProt P23415+P48167, A317C/C137A/C313A/C69A/Q95A); settings: MTSR-labeled, oocytes
Sequence of αWT αT-β19′C GlyR (P23415 29-449 isoform P23415-2 C69A): as the sequence (P23415 29-449 isoform P23415-2 Y307A limits assumed) above, with C41A, A279Y counted along it
Sequence of αWT αT-β19′C GlyR (P48167 23-497 with the stated changes): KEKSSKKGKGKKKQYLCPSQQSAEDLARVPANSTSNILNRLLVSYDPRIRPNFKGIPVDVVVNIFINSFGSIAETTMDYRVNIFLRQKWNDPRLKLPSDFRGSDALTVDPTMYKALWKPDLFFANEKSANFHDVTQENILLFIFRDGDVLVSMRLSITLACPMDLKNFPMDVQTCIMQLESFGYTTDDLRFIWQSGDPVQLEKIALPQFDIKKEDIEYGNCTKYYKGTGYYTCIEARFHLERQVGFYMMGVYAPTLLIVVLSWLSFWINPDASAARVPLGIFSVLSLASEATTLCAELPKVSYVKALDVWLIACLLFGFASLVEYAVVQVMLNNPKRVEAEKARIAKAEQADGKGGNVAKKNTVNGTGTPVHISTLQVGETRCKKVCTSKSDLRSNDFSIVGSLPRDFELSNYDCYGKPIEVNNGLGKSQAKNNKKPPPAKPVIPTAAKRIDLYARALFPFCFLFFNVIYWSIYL
Experimental: as §1, §4, §5, §6, §3

αWT β-α19′C GlyR = αWT β-α19′C GlyR (Homo sapiens, UniProt P23415+P48167, C137A/C69A/R299C); settings: MTSR-labeled, oocytes
Sequence of αWT β-α19′C GlyR (P23415 29-449 isoform P23415-2 C69A): as the sequence (P23415 29-449 isoform P23415-2 Y307A limits assumed) above, with C41A, A279Y counted along it
Sequence of αWT β-α19′C GlyR (P48167+P23415 fused with the stated changes): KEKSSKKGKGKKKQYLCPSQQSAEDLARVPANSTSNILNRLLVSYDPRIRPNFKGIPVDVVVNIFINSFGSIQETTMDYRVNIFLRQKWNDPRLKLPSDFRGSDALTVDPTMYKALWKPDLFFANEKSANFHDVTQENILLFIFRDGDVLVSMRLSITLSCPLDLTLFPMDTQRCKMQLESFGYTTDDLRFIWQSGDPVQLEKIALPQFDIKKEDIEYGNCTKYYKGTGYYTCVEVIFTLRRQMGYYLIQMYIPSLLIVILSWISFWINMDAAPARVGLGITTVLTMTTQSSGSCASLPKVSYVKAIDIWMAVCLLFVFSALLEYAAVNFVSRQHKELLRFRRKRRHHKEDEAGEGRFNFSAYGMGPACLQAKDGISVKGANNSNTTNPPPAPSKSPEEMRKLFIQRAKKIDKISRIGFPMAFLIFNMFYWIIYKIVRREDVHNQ
Experimental: as §1, §4, §5, §6, §3

αWT β19′C GlyR = αWT β19′C GlyR (Homo sapiens, UniProt P23415+P48167, A317C/C137A/C313A/C69A); settings: MTSR-labeled, oocytes
Sequence of αWT β19′C GlyR (P23415 29-449 isoform P23415-2 C69A): as the sequence (P23415 29-449 isoform P23415-2 Y307A limits assumed) above, with C41A, A279Y counted along it
Sequence of αWT β19′C GlyR (P48167 23-497 C137A/C313A/A317C): as the sequence (P48167 23-497) above, with C115A, C291A, A295C counted along it
Experimental: as §1, §4, §5, §6, §3

[1] = tested on: chimera α–β or chimera β–α transfected alone; assay: Whole cell patch-clamp, chimeras transfected alone into HEK293 cells; assay type: cell-based, human; settings: glycine up to 100 mM, data not shown
Experimental: as §1, §2

[2] = tested on: α-β, β-α, αB-β and αT-β subunits expressed alone; settings: chimeric subunits expressed alone in oocytes; data not shown
Experimental: as §5, §6

[3] = Hill coefficient of glycine-induced current

Sequence of αY27′A α-βWT GlyR (P23415 29-449 isoform P23415-2 Y307A): as the sequence (P23415 29-449 isoform P23415-2 Y307A limits assumed) above
Sequence of αY27′A α-βWT GlyR (P23415+P48167 fused with the stated changes): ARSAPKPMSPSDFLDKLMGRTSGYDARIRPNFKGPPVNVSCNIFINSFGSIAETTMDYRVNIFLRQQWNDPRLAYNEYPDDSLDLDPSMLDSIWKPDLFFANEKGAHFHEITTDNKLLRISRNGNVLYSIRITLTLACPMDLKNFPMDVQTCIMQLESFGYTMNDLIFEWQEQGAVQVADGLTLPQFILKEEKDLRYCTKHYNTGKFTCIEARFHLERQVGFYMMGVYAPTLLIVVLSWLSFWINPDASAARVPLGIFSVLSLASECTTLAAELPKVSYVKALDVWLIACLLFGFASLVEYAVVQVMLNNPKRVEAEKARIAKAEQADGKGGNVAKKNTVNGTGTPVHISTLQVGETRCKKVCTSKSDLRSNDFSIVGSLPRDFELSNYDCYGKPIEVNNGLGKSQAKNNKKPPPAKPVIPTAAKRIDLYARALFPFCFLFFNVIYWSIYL

NCC(=O)O [glycine]
nH (αY27′A α-βWT GlyR; [3]): 0.78±0.03
Imax (αY27′A α-βWT GlyR; glycine-induced current): 5.7±1.3 nA
nH (αY27′A βWT GlyR; [3]): 1.1±0.0
Imax (αY27′A βWT GlyR; glycine-induced current): 2.0±1.0 nA
nH (αY27′A β-αWT GlyR; [3]): 1.0±0.1
Imax (αY27′A β-αWT GlyR; glycine-induced current): 1.3±0.3 nA
Current Imax (αWT α-β19′C GlyR): 1.53±0.09 µA
Current nH (αWT α-β19′C GlyR): 2.36±0.32
Fluorescence Fmax (αWT α-β19′C GlyR): 6.58±1.17%
Fluorescence nH (αWT α-β19′C GlyR): 2.10±0.13
Current Imax (αWT αB-β19′C GlyR): 2.57±0.14 µA
Current nH (αWT αB-β19′C GlyR): 2.11±0.11
Fluorescence Fmax (αWT αB-β19′C GlyR): 8.52±1.07%
Fluorescence nH (αWT αB-β19′C GlyR): 1.19±0.12
Current Imax (αWT αT-β19′C GlyR): 2.19±0.20 µA
Current nH (αWT αT-β19′C GlyR): 1.45±0.06
Fluorescence Fmax (αWT αT-β19′C GlyR): 11.5±0.6%
Fluorescence nH (αWT αT-β19′C GlyR): 2.31±0.06
Current Imax (αWT β-α19′C GlyR): 3.19±0.08 µA
Current nH (αWT β-α19′C GlyR): 2.26±0.11
Fluorescence Fmax (αWT β-α19′C GlyR): 3.86±0.37%
Fluorescence nH (αWT β-α19′C GlyR): 1.15±0.05
Current Imax (αWT β19′C GlyR): 2.46±0.19 µA
Current nH (αWT β19′C GlyR): 2.73±0.38
Fluorescence Fmax (αWT β19′C GlyR): 7.58±0.84%
Fluorescence nH (αWT β19′C GlyR): 1.47±0.12
current upon application of glycine [1]: neither chimera, when transfected alone into HEK293 cells, induced any current
glycine-induced current and fluorescence changes [2]: neither glycine-induced current nor fluorescence changes could be detected
